The experiment concerns the target human CCR5 (Homo sapiens, UniProt P51681). Kind of experiment: gp120-sCD4-CCR5 binding assay (FACS). The conditions noted are these: CHO-K1 cell line stably transfected with the human CCR5 gene; biotinylated gp120 (JRFL strain) and soluble recombinant CD4; 1% DMSO. The protocol: gp120-sCD4-CCR5 Binding Assay:
The gp120-sCD4-CCR5 binding assay was carried out as previously described (Dragic, T., A. Trkola, et al. (2000). “A binding pocket for a small molecule inhibitor of HIV-1 entry within the transmembrane helices of CCR5.” Proc Natl Acad Sci USA 97: 5639-44.) with the following minor modifications: the cell line used for these experiments was a CHO-K1 cell line stably transfected with the human CCR5 gene; the gp120-CD4 complex comprised recombinant biotinylated gp120 (JRFL strain) and soluble recombinant CD4; and all compounds were tested in a final concentration of 1% DMSO.
All reagents and cell lines were obtained from Progenics Pharmaceuticals Inc, Tarrytown, N.Y., USA, and are commercially available or can be prepared according to the methods described and the information given in the papers above.

Chain of human CCR5 (P51681 whole entry): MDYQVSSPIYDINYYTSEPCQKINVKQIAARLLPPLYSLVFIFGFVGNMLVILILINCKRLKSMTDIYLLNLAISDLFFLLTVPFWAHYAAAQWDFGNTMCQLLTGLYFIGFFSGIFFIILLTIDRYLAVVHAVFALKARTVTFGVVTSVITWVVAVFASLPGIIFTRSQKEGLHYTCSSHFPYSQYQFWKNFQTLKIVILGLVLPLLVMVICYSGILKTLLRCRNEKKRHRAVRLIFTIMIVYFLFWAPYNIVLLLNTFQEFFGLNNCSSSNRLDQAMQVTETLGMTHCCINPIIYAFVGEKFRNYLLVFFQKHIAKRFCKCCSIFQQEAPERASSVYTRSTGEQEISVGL

What is called IC50 is the concentration that gives 50% inhibition. Regarding `Cc1ccc(-c2nc(CN3CCC(N(Cc4ccccc4)C(=O)Nc4ccccc4)CC3)c(C)[nH]2)cc1` [1-Benzyl-1-[1-[5-methyl-2-(4-methylphenyl)-1H-imidazol-4-ylmethyl]-4-piperidinyl]-3-phenylurea], the concentration for half-maximal inhibition (IC50) amounted to 30 nM. In the case of `Cc1[nH]c(-c2ccc(C(F)(F)F)cc2)nc1CN1CCC(N(Cc2ccccc2)C(=O)Nc2ccc([N+](=O)[O-])cc2)CC1` [1-Benzyl-1-[1-[[2-[4-(trifluoromethyl)phenyl]-5-methyl-1H-imidazol-4-yl]methyl]-4-piperidinyl]-3-(4-nitrophenyl)urea] it was 450 nM.

For the compound `CNC(=O)N(Cc1ccccc1)C1CCN(Cc2c(C)nc(-c3ccc(C(F)(F)F)cc3)n2Cc2ccccc2)CC1` [1-Benzyl-1-[1-[[3-benzyl-5-methyl-2-[4-(trifluoromethyl)phenyl]-3H-imidazol-4-yl]methyl]-4-piperidinyl]-3-methylurea], the IC50 worked out at 1100 nM. In the case of `CNC(=O)N(Cc1ccccc1)C1CCN(Cc2nc(-c3ccccc3OC)[nH]c2C)CC1` [1-Benzyl-1-{1-[2-(2-methoxy-phenyl)-5-methyl-1H-imidazol-4-ylmethyl]-piperidin-4-yl}-3-methyl-urea] it was 9600 nM. In the case of `CNC(=O)N(Cc1ccccc1)C1CCN(Cc2nc(-c3ccc(C(F)(F)F)cc3)[nH]c2C)CC1` [1-Benzyl-3-methyl-1-[1-[[5-methyl-2-[4-(trifluoromethyl)phenyl]-1H-imidazol-4-yl]methyl]-4-piperidinyl]urea], the 50% inhibitory concentration (IC50) was 110 nM. The result for `CNC(=O)N(Cc1ccccc1)C1CCN(Cc2nc(-c3ccc(C(F)(F)F)cc3)[nH]c2-c2ccccc2)CC1` [1-Benzyl-3-methyl-1-[1-[[5-phenyl-2-[4-(trifluoromethyl)phenyl]-1H-imidazol-4-yl]methyl]-4-piperidinyl]urea] reads 19100 nM.

For the origin of these results see patent US20030069276A1, “Amino piperidine derivatives” (priority 2001, published 2003).
